Data from PMC9435431, “Novel chemical entities inhibiting Mycobacterium tuberculosis growth identified by phenotypic high-throughput screening” (Scientific Reports, 2022).

Key:
[1] = test system: M. tuberculosis MmpL3 F255L mutant strain; format: cell-based, Mycobacterium tuberculosis
[2] = test system: M. tuberculosis MmpL3 G253E mutant strain; format: cell-based, Mycobacterium tuberculosis
[3] = test system: M. tuberculosis MmpL3 Y252S mutant strain; format: cell-based, Mycobacterium tuberculosis
[4] = test system: M. tuberculosis MmpL3 Y252C mutant strain; format: cell-based, Mycobacterium tuberculosis
[5] = test system: M. tuberculosis QcrB A396T mutant strain; format: cell-based, Mycobacterium tuberculosis
[6] = test system: M. tuberculosis; format: cell-based

COc1ccc(-c2cc(N)nc(-n3nc(C)cc3C)n2)cc1 [PZP-1]
Fold change [1]: > 19 | IC90 [1]: > 100 µM

Cc1nc(-c2ccccn2)nc(NCc2ccccc2)c1Cl [APDP-3]
Fold change [1]: 3.5 | IC90 [1]: 22 µM

CNc1cc(-c2ccccn2)nc(-c2ccccn2)n1 [APDP-1]
Fold change [1]: 0.9 | IC90 [1]: 9.2 µM

Cc1cc(NC2CCCCC2)nc(-n2nc(C)cc2C)n1 [PZP-3]
Fold change [1]: 10 | IC90 [1]: 46 µM

Cc1ccccc1C1(C(=O)NCCc2cccc(Br)c2)CCC1 [PCB-23, N-(3-bromophenethyl)-1-(o-tolyl)cyclobutane-1-carboxamide]
MmpL3 G253E MIC [2]: 27 µM | MmpL3 Y252S MIC [3]: 82 µM | MmpL3 F255L MIC [1]: 8.0 µM | MmpL3 Y252C MIC [4]: 83 µM

CC(=O)n1nccc1-c1sc(-c2cccs2)nc1C [TPT]
Fold-change [5]: 8.9 | IC90 [5]: 63 µM | activity against the QcrB mutant strain (in words) [5]: ≥ threefold lower activity

CC(C)(C)CC(C)(C)N1CCC(c2ccccc2)CC1 [Molecule 4PP-44, 4-Phenyl-1-(1,1,3,3-tetramethyl-butyl)-piperidine]
Fold change [1]: 3.5 | IC90 [1]: 18 µM

O=C(Nc1nc2ccccc2s1)NC1C2CC3CC(C2)CC1C3 (stereo not shown) [HBU-1]
Fold change [1]: 1.4 | IC90 [1]: 6 µM

O=C(NCCc1cccc(Br)c1)C1(c2cccc(Cl)c2)CCC1 [PCB-16, N-(3-bromophenethyl)-1-(3-chlorophenyl)cyclobutane-1-carboxamide]
MmpL3 G253E MIC [2]: 75 µM | MmpL3 Y252S MIC [3]: 50 µM | MmpL3 F255L MIC [1]: 8.0 µM | MmpL3 Y252C MIC [4]: 43 µM

CC1C(CNC(=O)Nc2ccccc2)CC2CC1C2(C)C (stereo not shown) [HBU-2]
Fold change [1]: 8.0 | IC90 [1]: 39 µM

CC(NC(=O)Nc1nc(-c2ccc(Cl)cc2)cs1)C1CC2C=CC1C2 (stereo not shown) [HBU-5]
Fold change [1]: 0.5 | IC90 [1]: 6.9 µM

O=C(O)C(F)(F)F.c1ccc2c(C3CCN(CC4CCCCC4)CC3)cccc2c1 [Molecule 4PP-31, 1-(Cyclohexylmethyl)-4-(1-naphthyl)piperidine; 2,2,2-trifluoroacetic acid]
Fold change [1]: 15 | IC90 [1]: 45 µM

O=C(NCCc1ccc(Br)cc1)NC12CC3CC(CC(C3)C1)C2 [HBU-4]
Fold change [1]: > 8.3 | IC90 [1]: > 100 µM

CC(=O)c1ccc(NC(=O)NC(C)C23CC4CC(CC(C4)C2)C3)cc1 (stereo not shown) [HBU-3]
Fold change [1]: 2.4 | IC90 [1]: 71 µM

O=C(O)C(F)(F)F.c1cc(C2CCN(CC3CCCCC3)CC2)ccn1 [Molecule 4PP-32, 4-[1-(Cyclohexylmethyl)-4-piperidyl]pyridine, 2,2,2-trifluoroacetic acid salt]
frequency of resistance [6]: 7.35 × 10^−8

Cc1cc(C)n(-c2nc(N)cc(-c3cccc(F)c3)n2)n1 [PZP-2]
Fold change [1]: > 13 | IC90 [1]: > 100 µM

O=C(NCCc1cccc(Br)c1)C1(c2ccccc2Br)CCC1 [PCB-21, N-(3-bromophenethyl)-1-(2-bromophenyl)cyclobutane-1-carboxamide]
MmpL3 G253E MIC [2]: 41 µM | MmpL3 Y252S MIC [3]: > 100 µM | MmpL3 F255L MIC [1]: 22 µM | MmpL3 Y252C MIC [4]: 96 µM | frequency of resistance [6]: 5.26 × 10^−8

O=C(NCCc1cccc(Br)c1)C1(c2ccccc2Cl)CCC1 [PCB-17, N-(3-bromophenethyl)-1-(2-chlorophenyl)cyclobutane-1-carboxamide]
MmpL3 G253E MIC [2]: 28 µM | MmpL3 Y252S MIC [3]: 87 µM | MmpL3 F255L MIC [1]: 9.0 µM | MmpL3 Y252C MIC [4]: 94 µM

CCC1(N2CCC(c3ccccc3)CC2)CCCCC1 [Molecule 4PP-1, 1-(1-Ethyl-cyclohexyl)-4-phenyl-piperidine]
MmpL3 G253E MIC [2]: 91 µM | MmpL3 Y252S MIC [3]: 93 µM | Fold change [1]: 11 | IC90 [1]: 68 µM | MmpL3 F255L MIC [1]: 68 µM | MmpL3 Y252C MIC [4]: 30 µM

Cc1ccc(-c2nnc(C)c(N3CCCC3)n2)cc1 [PYT]
Fold-change [5]: 5.8 | IC90 [5]: 62 µM | activity against the QcrB mutant strain (in words) [5]: ≥ threefold lower activity

O=C(NCCc1cccc(Br)c1)C1(c2ccc(F)cc2)CCC1 [PCB-19, N-(3-bromophenethyl)-1-(4-fluorophenyl)cyclobutane-1-carboxamide]
MmpL3 G253E MIC [2]: 20 µM | MmpL3 Y252S MIC [3]: 35 µM | MmpL3 F255L MIC [1]: 3 µM | MmpL3 Y252C MIC [4]: 45 µM | frequency of resistance [6]: 7.0 × 10^−8

Cc1nc(-c2ccccn2)nc(NCCNc2ccc(C(F)(F)F)cn2)c1Cl [APDP-2]
Fold change [1]: 0.5 | IC90 [1]: 15 µM
